This is an account of results in ChEMBL document CHEMBL3751715, “Design and synthesis of an activity-based protein profiling probe derived from cinnamic hydroxamic acid” (Bioorg Med Chem, 2016).

Values after ≈ are worked out from the molar mass of the structure shown.

The subject of data set [1] is Hepatitis C virus. The data set is described as follows: Antiviral activity against HCV assessed as reduction of viral replicon RNA level by RT-qPCR analysis. The class given is functional, organism-based. The following applies: Hepacivirus hominis.
Data set [2] can be described thus: Thermodynamic solubility of the compound in DPBS buffer at pH 7.4 after 72 hrs by UV spectrometric analysis. The class given is physicochemical. The following applies: read-out: Therm_solubility.
Data set [3] can be described thus: Half life in mouse plasma at 1 to 24 hrs by LC-MS/MS analysis. The class given is ADME, cell-free.
Data set [4] can be described thus: Half life in human plasma at 1 to 24 hrs by LC-MS/MS analysis. The class given is ADME, cell-free.
Data set [5] is described as follows: Half life in mouse liver microsomes at 1 uM by LC-MS/MS analysis in presence of NADPH. The class given is ADME.
Data set [6] in a line: Half life in human liver microsomes at 1 uM by LC-MS/MS analysis in presence of NADPH. The class given is ADME.
Data set [7] in a line: Half life in mouse liver microsomes at 1 uM by LC-MS/MS analysis in presence of UDPGA. The class given is ADME.
A short description of data set [8]: Half life in human liver microsomes at 1 uM by LC-MS/MS analysis in presence of UDPGA. The data set is classed as ADME.
The subject of data set [9] is Hepatitis C virus. The data set is described as follows: Antiviral activity against HCV genotype 1b replicon infected in human HuH7 cells after 3 days by luciferase reporter assay. The class given is functional, organism-based, Hepacivirus hominis. The following applies: Huh-7, 72 h.
Data set [10] in a line: Cytotoxicity against human HuH7 cells assessed as cell viability after 3 days by CellTiter 96 aqueous one solution cell proliferation assay. The class given is cell-based, Huh-7.
Data set [11] can be described thus: Therapeutic index, ratio of CC50 for human HuH7 cells to EC50 for HCV genotype 1b replicon. The data set is classed as cell-based, Huh-7. The settings on record: read-out: Ratio CC50/EC50.
The subject of data set [12] is Hepatitis C virus. Briefly: Antiviral activity against HCV genotype 1b replicon infected in human HuH7 cells at 10 uM after 3 days by luciferase reporter assay. The data set is classed as functional, Hepacivirus hominis. The following applies: Huh-7, 72 h.
Data set [13] in a line: Cytotoxicity against human HuH7 cells assessed as inhibition of cell viability at 10 uM after 3 days by CellTiter 96 aqueous one solution cell proliferation assay. The data set is classed as cell-based, Huh-7. The following applies: read-out: Activity.
The target in a further data set is Histone deacetylase 1 (Homo sapiens, UniProt Q13547). The data set is described as follows: Inhibition of full length C-terminal GST-tagged human HDAC1 expressed in Sf9 cells using (Arg-His-Lys-Lys(Ac)) as substrate by plate reader analysis.
Sequence of Histone deacetylase 1 (Q13547 whole entry): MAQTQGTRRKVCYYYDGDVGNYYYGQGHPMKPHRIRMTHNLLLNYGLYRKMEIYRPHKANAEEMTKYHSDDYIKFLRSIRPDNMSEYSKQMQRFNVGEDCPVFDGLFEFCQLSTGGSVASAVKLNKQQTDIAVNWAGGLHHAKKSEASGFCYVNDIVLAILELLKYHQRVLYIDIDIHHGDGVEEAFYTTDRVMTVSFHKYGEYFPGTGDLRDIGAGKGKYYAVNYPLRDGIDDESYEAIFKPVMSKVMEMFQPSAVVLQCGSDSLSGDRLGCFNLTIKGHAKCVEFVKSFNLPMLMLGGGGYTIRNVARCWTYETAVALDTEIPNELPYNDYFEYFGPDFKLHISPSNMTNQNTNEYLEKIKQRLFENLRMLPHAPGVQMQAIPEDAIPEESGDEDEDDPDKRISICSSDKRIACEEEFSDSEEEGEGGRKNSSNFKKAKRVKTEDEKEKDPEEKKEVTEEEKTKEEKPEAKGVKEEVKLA
A further data set concerns the target Histone deacetylase 2 (Homo sapiens, UniProt Q92769). Briefly: Inhibition of full length C-terminal His-tagged human HDAC2 expressed in Sf9 cells using (Arg-His-Lys-Lys(Ac)) as substrate by plate reader analysis.
The next data set addresses Histone deacetylase 3 (Homo sapiens, UniProt O15379). Briefly: Inhibition of full length C-terminal His-tagged human HDAC3 expressed in baculovirus expression system using (Arg-His-Lys-Lys(Ac)) as substrate by plate reader analysis.
In a further data set the target is Histone deacetylase 4 (Homo sapiens, UniProt P56524). The data set is described as follows: Inhibition of N-terminal GST-tagged human HDAC4 expressed in baculovirus expression system using (Boc-Lys(trifluoroacetyl)-AMC) as substrate by plate reader analysis.
Sequence of Histone deacetylase 4 (P56524 whole entry): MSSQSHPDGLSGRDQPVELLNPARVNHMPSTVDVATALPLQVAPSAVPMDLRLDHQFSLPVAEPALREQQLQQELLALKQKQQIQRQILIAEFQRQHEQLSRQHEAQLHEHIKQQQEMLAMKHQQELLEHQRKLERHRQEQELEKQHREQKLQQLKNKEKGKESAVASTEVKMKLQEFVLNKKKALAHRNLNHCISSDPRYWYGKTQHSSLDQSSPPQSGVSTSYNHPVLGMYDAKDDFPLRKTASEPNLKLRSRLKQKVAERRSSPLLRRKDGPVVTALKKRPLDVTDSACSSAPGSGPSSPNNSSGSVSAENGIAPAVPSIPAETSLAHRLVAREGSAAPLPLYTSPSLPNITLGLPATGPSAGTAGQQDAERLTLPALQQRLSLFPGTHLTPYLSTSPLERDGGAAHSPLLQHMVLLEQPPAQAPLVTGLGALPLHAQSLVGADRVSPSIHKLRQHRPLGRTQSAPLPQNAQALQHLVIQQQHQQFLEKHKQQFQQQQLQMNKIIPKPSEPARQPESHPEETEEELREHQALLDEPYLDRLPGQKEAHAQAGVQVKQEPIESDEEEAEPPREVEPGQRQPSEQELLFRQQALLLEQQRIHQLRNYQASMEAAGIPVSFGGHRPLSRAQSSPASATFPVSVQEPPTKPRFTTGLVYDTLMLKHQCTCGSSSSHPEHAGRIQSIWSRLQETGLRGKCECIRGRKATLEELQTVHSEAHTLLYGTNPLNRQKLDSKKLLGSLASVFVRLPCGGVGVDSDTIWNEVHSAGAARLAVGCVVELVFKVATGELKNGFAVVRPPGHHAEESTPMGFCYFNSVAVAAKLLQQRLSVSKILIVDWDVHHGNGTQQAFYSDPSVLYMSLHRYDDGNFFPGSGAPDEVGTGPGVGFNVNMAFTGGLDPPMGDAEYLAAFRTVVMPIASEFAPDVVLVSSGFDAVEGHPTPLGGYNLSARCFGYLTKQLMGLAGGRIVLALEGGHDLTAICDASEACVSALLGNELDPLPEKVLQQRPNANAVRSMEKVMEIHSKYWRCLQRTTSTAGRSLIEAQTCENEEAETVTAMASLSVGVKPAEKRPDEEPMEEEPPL
The target in the next data set is Histone deacetylase 5 (Homo sapiens, UniProt Q9UQL6). The data set is described as follows: Inhibition of full length N-terminal GST-tagged human HDAC5 expressed in Sf9 cells using (Boc-Lys(trifluoroacetyl)-AMC) as substrate by plate reader analysis.
Sequence of Histone deacetylase 5 (Q9UQL6 whole entry): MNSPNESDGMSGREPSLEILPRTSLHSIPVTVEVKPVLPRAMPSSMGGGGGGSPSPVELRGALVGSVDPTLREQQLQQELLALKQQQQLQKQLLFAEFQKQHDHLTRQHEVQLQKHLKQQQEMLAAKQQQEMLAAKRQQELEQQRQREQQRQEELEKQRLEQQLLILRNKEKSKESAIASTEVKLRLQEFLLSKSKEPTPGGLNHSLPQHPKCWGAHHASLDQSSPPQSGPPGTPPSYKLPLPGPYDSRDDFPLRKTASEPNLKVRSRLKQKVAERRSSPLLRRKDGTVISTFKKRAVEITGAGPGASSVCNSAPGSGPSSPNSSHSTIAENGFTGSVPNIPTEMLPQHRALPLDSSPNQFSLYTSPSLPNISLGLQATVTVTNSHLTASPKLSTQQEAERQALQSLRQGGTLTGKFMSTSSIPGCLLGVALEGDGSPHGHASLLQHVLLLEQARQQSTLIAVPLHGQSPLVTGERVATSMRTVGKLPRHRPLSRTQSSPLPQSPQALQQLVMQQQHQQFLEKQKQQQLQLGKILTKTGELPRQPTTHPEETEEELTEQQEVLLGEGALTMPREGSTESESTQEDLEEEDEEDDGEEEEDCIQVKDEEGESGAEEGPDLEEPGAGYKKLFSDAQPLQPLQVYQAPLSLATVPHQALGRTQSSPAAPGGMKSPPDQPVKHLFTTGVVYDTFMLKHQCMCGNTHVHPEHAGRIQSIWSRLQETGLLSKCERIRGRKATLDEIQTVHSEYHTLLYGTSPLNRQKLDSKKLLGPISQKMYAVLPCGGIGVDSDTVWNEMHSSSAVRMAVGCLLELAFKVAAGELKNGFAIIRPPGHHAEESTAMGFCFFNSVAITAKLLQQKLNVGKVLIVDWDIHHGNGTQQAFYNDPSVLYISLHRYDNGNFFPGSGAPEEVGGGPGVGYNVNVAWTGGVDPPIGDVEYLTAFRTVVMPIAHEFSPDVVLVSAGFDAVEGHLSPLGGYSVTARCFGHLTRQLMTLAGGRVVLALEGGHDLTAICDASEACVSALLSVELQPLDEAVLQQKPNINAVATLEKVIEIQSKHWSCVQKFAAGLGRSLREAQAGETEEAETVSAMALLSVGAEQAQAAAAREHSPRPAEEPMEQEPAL
For data set [14], the target named is Protein deacetylase HDAC6 (Homo sapiens, UniProt Q9UBN7). The data set is described as follows: Inhibition of full length N-terminal GST-tagged human HDAC6 expressed in Sf9 cells using (Arg-His-Lys-Lys(Ac)) as substrate by plate reader analysis.
The next data set deals with Histone deacetylase 7 (Homo sapiens, UniProt Q8WUI4). The data set is described as follows: Inhibition of N-terminal GST-tagged human HDAC7 expressed in baculovirus expression system using (Boc-Lys(trifluoroacetyl)-AMC) as substrate by plate reader analysis.
Another data set has as its target Histone deacetylase 8 (Homo sapiens, UniProt Q9BY41). Briefly: Inhibition of full length human HDAC8 expressed in Escherichia coli using (Arg-His-Lys(Ac)-Lys(Ac)) as substrate by plate reader analysis.
The target of a further data set is Histone deacetylase 9 (Homo sapiens, UniProt Q9UKV0). Briefly: Inhibition of C-terminal His-tagged human HDAC9 expressed in baculovirus expression system using (Boc-Lys(trifluoroacetyl)-AMC) as substrate by plate reader analysis.
Data set [15] has as its target Polyamine deacetylase HDAC10 (Homo sapiens, UniProt Q969S8). The data set is described as follows: Inhibition of N-terminal GST-tagged human HDAC10 expressed in Sf9 cells using (Arg-His-Lys-Lys(Ac)) as substrate by plate reader analysis.
A further data set has as its target Histone deacetylase 11 (Homo sapiens, UniProt Q96DB2). The data set is described as follows: Inhibition of N-terminal GST-tagged human HDAC11 expressed in baculovirus expression system using (Arg-His-Lys-Lys(Ac)) as substrate by plate reader analysis.
In the next data set the target is Interstitial collagenase (Homo sapiens, UniProt P03956). Briefly: Inhibition of human recombinant MMP1 expressed in Escherichia coli using (5-FAM/QXLTM) FRET peptide as substrate.
Sequence of Interstitial collagenase (P03956 whole entry): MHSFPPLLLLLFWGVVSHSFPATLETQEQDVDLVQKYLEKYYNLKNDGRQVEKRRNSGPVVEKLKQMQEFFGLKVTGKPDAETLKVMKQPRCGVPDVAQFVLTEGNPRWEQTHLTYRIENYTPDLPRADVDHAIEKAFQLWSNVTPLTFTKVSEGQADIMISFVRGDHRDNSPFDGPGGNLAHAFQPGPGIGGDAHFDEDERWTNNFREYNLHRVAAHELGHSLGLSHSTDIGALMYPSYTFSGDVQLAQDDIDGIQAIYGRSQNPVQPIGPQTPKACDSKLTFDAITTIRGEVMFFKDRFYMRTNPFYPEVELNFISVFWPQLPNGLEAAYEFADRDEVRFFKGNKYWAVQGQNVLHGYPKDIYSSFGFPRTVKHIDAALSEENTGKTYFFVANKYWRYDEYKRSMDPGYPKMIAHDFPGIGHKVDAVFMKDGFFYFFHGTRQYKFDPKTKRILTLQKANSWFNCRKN
In a further data set the target is Stromelysin-1 (Homo sapiens, UniProt P08254). The data set is described as follows: Inhibition of human recombinant MMP3 expressed in Escherichia coli using (5-FAM/QXLTM) FRET peptide as substrate.
The subject of data set [16] is Hepatitis C virus subtype 1b. Briefly: Inhibition of recombinant HCV genotype 1b NS5B Cdelta55 RNA dependent RNA polymerase at 10 uM incubated for 3 hrs using Oligo-U12 primer, UTP and Poly(A) template by scintillation proximity assay.
For the next data set, the target named is Matrilysin (Homo sapiens, UniProt P09237). Briefly: Inhibition of human recombinant MMP7 expressed in Escherichia coli using (5-FAM/QXLTM) FRET peptide as substrate.
Sequence of Matrilysin (P09237 whole entry): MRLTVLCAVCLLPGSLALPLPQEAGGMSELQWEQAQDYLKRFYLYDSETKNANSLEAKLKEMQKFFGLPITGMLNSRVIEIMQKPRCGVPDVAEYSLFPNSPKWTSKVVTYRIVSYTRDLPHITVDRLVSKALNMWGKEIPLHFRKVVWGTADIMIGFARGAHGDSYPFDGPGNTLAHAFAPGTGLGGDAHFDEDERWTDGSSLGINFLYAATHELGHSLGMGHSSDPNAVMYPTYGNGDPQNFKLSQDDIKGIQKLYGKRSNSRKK
A further data set concerns the target Neutrophil collagenase (Homo sapiens, UniProt P22894). Briefly: Inhibition of human recombinant MMP8 expressed in Escherichia coli using (5-FAM/QXLTM) FRET peptide as substrate.
The target in data set [17] is Matrix metalloproteinase-9 (Homo sapiens, UniProt P14780). The data set is described as follows: Inhibition of human recombinant MMP9 expressed in Escherichia coli using (5-FAM/QXLTM) FRET peptide as substrate.
In another data set the target is Stromelysin-2 (Homo sapiens, UniProt P09238). Briefly: Inhibition of human recombinant MMP10 expressed in Escherichia coli using (5-FAM/QXLTM) FRET peptide as substrate.
Data set [18] deals with Macrophage metalloelastase (Homo sapiens, UniProt P39900). The data set is described as follows: Inhibition of human recombinant MMP12 expressed in Escherichia coli using (5-FAM/QXLTM) FRET peptide as substrate.
A further data set addresses Collagenase 3 (Homo sapiens, UniProt P45452). Briefly: Inhibition of human recombinant MMP13 expressed in Escherichia coli using (5-FAM/QXLTM) FRET peptide as substrate.
The target of data set [19] is Matrix metalloproteinase-14 (Homo sapiens, UniProt P50281). Briefly: Inhibition of human recombinant MMP14 expressed in Escherichia coli using (5-FAM/QXLTM) FRET peptide as substrate.
In data set [20] the target is Disintegrin and metalloproteinase domain-containing protein 17 (Homo sapiens, UniProt P78536). The data set is described as follows: Inhibition of human recombinant TACE expressed in Sf21 cells using MCA-PLAQAV-Dpa-RSSSR-NH2 as substrate.
A short description of data set [21]: Inhibition of recombinant HCV genotype 1b NS3/4A protease expressed in Escherichia coli using Ac-DE-D(Edans)-EE-Abu-[COO]-AS-K(Dabcyl)-NH2 as substrate. More on the design: species or system Hepatitis C virus subtype 1b.

Sequence of Histone deacetylase 2 (Q92769 whole entry): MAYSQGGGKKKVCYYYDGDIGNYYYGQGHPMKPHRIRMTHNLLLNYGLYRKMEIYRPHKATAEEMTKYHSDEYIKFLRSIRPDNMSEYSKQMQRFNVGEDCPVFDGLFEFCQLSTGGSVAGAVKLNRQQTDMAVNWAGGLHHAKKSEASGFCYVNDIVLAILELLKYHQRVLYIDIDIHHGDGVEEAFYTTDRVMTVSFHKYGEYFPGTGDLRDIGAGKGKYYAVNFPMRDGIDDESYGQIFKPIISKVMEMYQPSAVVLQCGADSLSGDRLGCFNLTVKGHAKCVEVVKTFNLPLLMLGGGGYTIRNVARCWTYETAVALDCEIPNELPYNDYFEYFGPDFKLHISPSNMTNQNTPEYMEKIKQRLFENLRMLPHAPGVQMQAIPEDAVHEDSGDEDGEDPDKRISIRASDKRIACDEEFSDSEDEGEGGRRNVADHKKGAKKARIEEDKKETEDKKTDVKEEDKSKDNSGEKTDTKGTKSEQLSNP
Sequence of Histone deacetylase 3 (O15379 whole entry): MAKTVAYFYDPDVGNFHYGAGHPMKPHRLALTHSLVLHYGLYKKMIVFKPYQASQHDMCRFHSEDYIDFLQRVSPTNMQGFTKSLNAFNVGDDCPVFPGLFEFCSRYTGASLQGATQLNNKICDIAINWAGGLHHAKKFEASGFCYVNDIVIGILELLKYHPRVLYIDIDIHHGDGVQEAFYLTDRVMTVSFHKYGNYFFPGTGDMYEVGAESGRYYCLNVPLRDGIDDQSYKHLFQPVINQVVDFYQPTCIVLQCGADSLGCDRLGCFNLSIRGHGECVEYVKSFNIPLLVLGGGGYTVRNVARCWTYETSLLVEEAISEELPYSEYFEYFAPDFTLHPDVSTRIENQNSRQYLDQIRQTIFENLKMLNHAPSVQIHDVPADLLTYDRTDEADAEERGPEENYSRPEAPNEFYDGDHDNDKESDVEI
Sequence of Neutrophil collagenase (P22894 whole entry): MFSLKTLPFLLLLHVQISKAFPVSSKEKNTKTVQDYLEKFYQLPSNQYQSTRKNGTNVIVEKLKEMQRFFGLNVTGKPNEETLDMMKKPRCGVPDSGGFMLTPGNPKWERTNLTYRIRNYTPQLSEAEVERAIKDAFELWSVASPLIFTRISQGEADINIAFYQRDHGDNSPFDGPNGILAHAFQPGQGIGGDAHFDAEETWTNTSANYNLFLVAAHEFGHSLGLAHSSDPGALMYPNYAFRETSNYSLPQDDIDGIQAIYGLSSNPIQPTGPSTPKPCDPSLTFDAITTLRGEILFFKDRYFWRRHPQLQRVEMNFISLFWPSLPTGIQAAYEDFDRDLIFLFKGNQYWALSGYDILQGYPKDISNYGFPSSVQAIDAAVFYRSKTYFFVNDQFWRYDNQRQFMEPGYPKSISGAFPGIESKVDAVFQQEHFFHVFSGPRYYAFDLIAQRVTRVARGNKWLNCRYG

On to `O=C(NO)c1sc2ccccc2c1S(=O)(=O)c1ccccc1`, for which the Activity result with Hepatitis C virus [1] was “Dose-dependent effect”. In addition, the solubility thermodynamic at 72 h in [2] was 3350 µM (≈ 1120 µg/mL). Also, the half-life in [3] and in [4] was greater than 24 h throughout. In addition, the half-life at 1 µM in [5] is 1.31 h; in data set [6] it was 12.8 h; in data set [7] it was 0.0283 h; in [8] it was 0.0233 h.

For `O=C(/C=C/c1ccc(C(=O)c2ccccc2)cc1)NO`, a half-maximal response with Hepatitis C virus [9] (EC50) required 0.48 µM. For the same molecule, in [10], the CC50 at 72 h was 16 µM. Besides, in data set [11], the selectivity ratio worked out at 33.

As for `C#CCCCC(=O)NCCOCCOCCOc1ccc(C(=O)c2ccc(/C=C/C(=O)O)cc2)cc1`, in the data set on Hepatitis C virus [12], the inhibition at 10 µM is less than 5%. Besides, the inhibition at 72 h, 10 µM in data set [13] is less than 5%.

In the data set with Hepatitis C virus [12], `[N-]=[N+]=NCCCNC(=O)CCCC[C@@H]1SC[C@@H]2NC(=O)N[C@@H]21` yielded an inhibition at 10 µM of less than 10%. Besides, the inhibition at 72 h, 10 µM in [13] was less than 5%.

Take `O=C(/C=C/c1ccc(C(F)(F)F)cc1)NO`: the Activity entry with Hepatitis C virus [1] is “Dose-dependent effect”. Further, the IC50 is 4.11 µM on Histone deacetylase 1; 6.36 µM at Histone deacetylase 2; 5.37 µM at Histone deacetylase 3; greater than 100 µM on Histone deacetylase 4; 34.7 µM against Histone deacetylase 5; 0.183 µM in data set [14]. The IC50 on Histone deacetylase 7 was greater than 100 µM; against Histone deacetylase 8, 0.954 µM; against Histone deacetylase 9 it was greater than 100 µM; in data set [15] it was 6.32 µM; against Histone deacetylase 11 it was 5.53 µM; on Interstitial collagenase, greater than 100 µM. Further, the half-inhibitory concentration (IC50) (at Stromelysin-1; on Matrilysin; on Neutrophil collagenase; in [17]; at Stromelysin-2; in data set [18]) was greater than 100 µM throughout. In addition, the half-inhibitory concentration (IC50) was greater than 100 µM at Collagenase 3, greater than 100 µM in [19], 21.5 µM in data set [20] and greater than 200 µM in [21]. Besides, the inhibition in [16] is less than 5%. In addition, in data set [2], the solubility thermodynamic at 72 h turned out to be 648 µM (≈ 150 µg/mL). In addition, the half-life was 23.2 h in data set [3] and greater than 24 h in [4]. For the same molecule, the half-life at 1 µM in [5] was determined as 0.77 h; in [6] it was 11.6 h; in data set [7], 0.247 h; in data set [8], 8.88 h.

As to `C#CCCCC(=O)NCCOCCOCCOc1ccc(C(=O)c2ccc(/C=C/C(=O)NO)cc2)cc1`, in the data set with Hepatitis C virus [9], the EC50 was 1.2 µM. Further, the CC50 at 72 h in data set [10] is 25 µM. Moreover, in data set [11], the selectivity ratio turned out to be 21.
